Measured values taken from BigSolDB 2.1.

Oc1ccc(Cl)cc1C=Nc1ccccn1
solubility (mole fraction)
Details | 268.15 K | 273.15 K | 278.15 K | 283.15 K | 288.15 K | 293.15 K | 298.15 K | 303.15 K
in THF | 0.0285 | 0.0323 | 0.0362 | 0.0406 | 0.0466 | 0.0545 | 0.0649 | 0.0735
in dichloromethane | 0.00836 | 0.0124 | 0.0166 | 0.0193 | 0.0247 | 0.0306 | 0.0355 | 0.0429
in diethyl ether | 0.00329 | 0.00427 | 0.00513 | 0.00605 | 0.00728 | 0.00844 | 0.0105 | 0.0121
in toluene | 0.0103 | 0.0111 | 0.0136 | 0.017 | 0.0192 | 0.0228 | 0.0277 | 0.0339

Oc1ccccc1/C=N/c1ccccn1
solubility (mole fraction)
Details | 268.15 K | 273.15 K | 278.15 K | 283.15 K | 288.15 K | 293.15 K | 298.15 K
in diethyl ether | 0.0581 | 0.0673 | 0.0873 | 0.107 | 0.14 | 0.17 | 0.231
in ethanol | 0.0099 | 0.0121 | 0.0152 | 0.0199 | 0.0266 | 0.035 | 0.0489
in methanol | 0.00796 | 0.0107 | 0.0146 | 0.0187 | 0.0255 | 0.0346 | 0.0503
in toluene | 0.135 | 0.174 | 0.215 | 0.26 | 0.316 | 0.361 | 0.423
